Strand notation (5' to 3'): a small letter for the sugar, then the base; units joined by * are phosphorothioate-linked, units joined directly phosphodiester-linked; [ ] holds rarer units or linkages, { } end groups; capitals alone tell only the bases. e = 2'-O-(2-methoxyethyl) (MOE); [5mC] = 5-methylcytosine; d = 2'-deoxy (DNA)
What was measured:
human PKK mRNA [1] = experiment: Dose-dependent antisense inhibition of human PKK in HepaRG cells, 0.19-5.00 uM (Example 5); assay type: cell-based; conditions: for percent inhibition of PKK mRNA, 0.19 μM: 0.19 μM antisense oligonucleotide; for percent inhibition of PKK mRNA, 0.56 μM: 0.56 μM antisense oligonucleotide; for percent inhibition of PKK mRNA, 1.67 μM: 1.67 μM antisense oligonucleotide; for percent inhibition of PKK mRNA, 5.00 μM: 5.00 μM antisense oligonucleotide
Procedure, shortened: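 HepaRG cells (20,000/well) were electroporated with antisense oligonucleotide at 0.19, 0.56, 1.67 and 5.00 μM and treated for about 16 hours. PKK mRNA was quantified by qRT-PCR with primer probe set RTS3454, normalised to RIBOGREEN total RNA, and IC50 was derived per oligonucleotide.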

human PKK mRNA [2] = experiment: Antisense inhibition of human PKK mRNA in HepaRG cells, 5,000 nM (Example 2); assay type: cell-based
Procedure, shortened: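 HepaRG cells, 20,000 per well, were electroporated with 5,000 nM MOE gapmer (phosphorothioate, 5-methylcytosine) and incubated about 24 hours. PKK mRNA was quantified by qRT-PCR with primer probe set RTS3454, normalized to RIBOGREEN total RNA, and expressed as percent inhibition versus untreated controls.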

[3] = HepaRG cells, electroporation, approximately 16 hours, Table 36
[4] = 4 point dose response, HepaRG cells, Table 36
[5] = Table 13, human PKK mRNA in HepaRG cells, 5-10-5 gapmers
[6] = Table 7, HepaRG cells, electroporation with 5,000 nM antisense oligonucleotide, approx. 24 hours, PKK mRNA by RT-PCR (RTS3454), relative to untreated control cells
[7] = HepaRG cells, electroporation, approximately 16 hours, Table 41
[8] = 4 point dose response, HepaRG cells, Table 41
[9] = Table 34, HepaRG, electroporation, ~16 h
[10] = Table 34, PKK mRNA, HepaRG, electroporation, ~16 h
[11] = Table 8, HepaRG cells, electroporation with 5,000 nM antisense oligonucleotide, approx. 24 hours, PKK mRNA by RT-PCR (RTS3454), relative to untreated control cells
[12] = HepaRG cells, electroporation, approximately 16 hours, Table 40
[13] = HepaRG cells, electroporation, approximately 16 hours, Table 38
[14] = HepaRG cells, electroporation, approximately 16 hours, Table 39
[15] = 4 point dose response, HepaRG cells, Table 39
[16] = HepaRG cells, electroporation, approximately 16 hours, Table 35

## 547454 (antisense eT*eA*eT*e[5mC]*eA*dT*dG*dA*dT*dT*d[5mC]*d[5mC]*d[5mC]*dT*dT*e[5mC]*eT*eG*eA*eG) [compound 547454]
Human PKK mRNA [1]; [3]
  percent inhibition of PKK at 0.19 μM: 19%
  percent inhibition of PKK at 0.56 μM: 40%
  percent inhibition of PKK at 1.67 μM: 58%
  percent inhibition of PKK at 5.00 μM: 92%
Human PKK mRNA [1]; [4]
  IC50: 900 nM
Human PKK mRNA [2]; Table 9 experiment, HepaRG cells, 20,000 cells per well, electroporation with 5,000 nM antisense oligonucleotide, approx. 24 hours, PKK mRNA by RT-PCR (RTS3454), relative to untreated control cells
  % inhibition: 92%
Human PKK mRNA [2]; Table 10 experiment, HepaRG cells, 20,000 cells per well, electroporation with 5,000 nM antisense oligonucleotide, approx. 24 hours, PKK mRNA by RT-PCR (RTS3454), relative to untreated control cells
  % inhibition: 78%

## 546833 (eA*e[5mC]*eT*e[5mC]*eT*dA*dA*d[5mC]*dA*dG*dT*dA*dT*d[5mC]*dA*e[5mC]*eT*eG*eT*eA; antisense) [compound 546833]
Human PKK mRNA [1]; [3]
  percent inhibition of PKK at 0.19 μM: 8%
  percent inhibition of PKK at 0.56 μM: 33%
  percent inhibition of PKK at 1.67 μM: 74%
  percent inhibition of PKK at 5.00 μM: 94%
Human PKK mRNA [1]; [4]
  IC50: 900 nM
Human PKK mRNA [2]; [5]
  % inhibition: 90%

## 547364 (eG*eA*eA*e[5mC]*e[5mC]*d[5mC]*dT*dG*dG*d[5mC]*dA*dA*d[5mC]*dA*dT*e[5mC]*e[5mC]*eA*e[5mC]*eA; antisense) [compound 547364]
Human PKK mRNA [1]; [3]
  percent inhibition of PKK at 0.19 μM: 38%
  percent inhibition of PKK at 0.56 μM: 47%
  percent inhibition of PKK at 1.67 μM: 54%
  percent inhibition of PKK at 5.00 μM: 89%
Human PKK mRNA [1]; [4]
  IC50: 600 nM
Human PKK mRNA [2]; [6]
  % inhibition: 92%

## 547564 (e[5mC]*e[5mC]*e[5mC]*eT*e[5mC]*dT*dG*dT*d[5mC]*dT*dT*dA*dG*dA*dT*eG*eT*e[5mC]*e[5mC]*eA; antisense) [compound 547564]
Human PKK mRNA [1]; [7]
  percent inhibition of PKK at 5.00 μM: 97%
  percent inhibition of PKK at 0.19 0μM: 46%
  percent inhibition of PKK at 0.56 0μM: 66%
  percent inhibition of PKK at 1.67 1μM: 90%
Human PKK mRNA [1]; [8]
  IC50: 200 nM
Human PKK mRNA [1]; [9]
  percent inhibition of PKK at 0.19 μM: 51%
  percent inhibition of PKK at 0.56 μM: 48%
  percent inhibition of PKK at 1.67 μM: 82%
  percent inhibition of PKK at 5.00 μM: 90%
Human PKK mRNA [1]; [10]
  IC50: 200 nM
Human PKK mRNA [2]; [5]
  % inhibition: 94%

## 547423 (e[5mC]*e[5mC]*e[5mC]*eT*eT*dG*dT*dG*dT*d[5mC]*d[5mC]*d[5mC]*dA*dT*dA*e[5mC]*eG*e[5mC]*eA*eA; antisense) [compound 547423]
Human PKK mRNA [1]; [7]
  percent inhibition of PKK at 0.19 0μM: 78%
  percent inhibition of PKK at 0.56 0μM: 92%
Human PKK mRNA [1]; [8]
  IC50: < 200 nM
Human PKK mRNA [1]; [9]
  percent inhibition of PKK at 0.19 μM: 37%
  percent inhibition of PKK at 0.56 μM: 50%
  percent inhibition of PKK at 1.67 μM: 92%
  percent inhibition of PKK at 5.00 μM: 90%
Human PKK mRNA [1]; [10]
  IC50: 400 nM
Human PKK mRNA [2]; [11]
  % inhibition: 95%

## 548753 (antisense eT*e[5mC]*eA*e[5mC]*dT*dG*dT*dA*d[5mC]*dT*dA*dG*dT*dT*eT*e[5mC]*e[5mC]*eT) [compound 548753]
Human PKK mRNA [1]; [12]
  percent inhibition of PKK at 0.19 μM: 0%
  percent inhibition of PKK at 0.56 μM: 23%
  percent inhibition of PKK at 1.67 μM: 49%
  percent inhibition of PKK at 5.00 μM: 84%
Human PKK mRNA [1]; 4 point dose response, HepaRG cells, Table 40
  IC50: 1500 nM
Human PKK mRNA [2]; human PKK mRNA, HepaRG cells, 5,000 nM antisense oligonucleotide, Table 18
  % inhibition: 82%

## 547413 (eG*eT*eG*eA*eA*dA*dA*dA*d[5mC]*dT*dG*dA*d[5mC]*dA*dG*e[5mC]*eG*eA*eA*eT; antisense) [compound 547413]
Human PKK mRNA [1]; [9]
  percent inhibition of PKK at 0.19 μM: 0%
  percent inhibition of PKK at 0.56 μM: 0%
  percent inhibition of PKK at 1.67 μM: 41%
  percent inhibition of PKK at 5.00 μM: 83%
Human PKK mRNA [1]; [10]
  IC50: 2200 nM
Human PKK mRNA [2]; [11]
  % inhibition: 94%

## 547337 (antisense eA*eA*e[5mC]*eT*e[5mC]*d[5mC]*dT*dT*dT*dA*dT*dA*dA*dA*dT*eG*eT*e[5mC]*eT*e[5mC]) [compound 547337]
Human PKK mRNA [1]; [13]
  percent inhibition of PKK at 0.19 μM: 23%
  percent inhibition of PKK at 0.56 μM: 41%
  percent inhibition of PKK at 1.67 μM: 55%
  percent inhibition of PKK at 5.00 μM: 79%
Human PKK mRNA [1]; 4 point dose response, HepaRG cells, Table 38
  IC50: 1000 nM
Human PKK mRNA [2]; HepaRG cells, electroporation with 5,000 nM antisense oligonucleotide, approximately 24 hours, PKK mRNA by RT-PCR (RTS3454), relative to untreated control cells, Table 6 experiment
  % inhibition: 84%

## 546872 (e[5mC]*eA*e[5mC]*eT*eG*dT*dA*d[5mC]*d[5mC]*dT*dA*dT*dA*dA*d[5mC]*eT*e[5mC]*eT*eA*eA; antisense) [compound 546872]
Human PKK mRNA [1]; [14]
  percent inhibition of PKK at 0.19 μM: 32%
  percent inhibition of PKK at 0.56 μM: 33%
  percent inhibition of PKK at 1.67 μM: 82%
  percent inhibition of PKK at 5.00 μM: 94%
Human PKK mRNA [1]; [15]
  IC50: 400 nM
Human PKK mRNA [1]; HepaRG cells
  percent inhibition of PKK mRNA, 0.19 μM: 42%
  percent inhibition of PKK mRNA, 0.56 μM: 13%
  percent inhibition of PKK mRNA, 1.67 μM: 59%
  percent inhibition of PKK mRNA, 5.00 μM: 99%
Human PKK mRNA [1]; HepaRG cells, 0.19-5.00 μM
  IC50: 1400 nM
Human PKK mRNA [2]; human PKK mRNA in HepaRG cells, 5-10-5 gapmers, Table 14
  % inhibition: 87%

## 546967 (e[5mC]*eA*e[5mC]*e[5mC]*eG*d[5mC]*dG*d[5mC]*dG*dA*dA*dT*dG*d[5mC]*d[5mC]*eT*eG*e[5mC]*e[5mC]*eT; antisense) [compound 546967]
Human PKK mRNA [1]; [16]
  percent inhibition of PKK at 0.19 μM: 20%
  percent inhibition of PKK at 0.56 μM: 39%
  percent inhibition of PKK at 1.67 μM: 76%
  percent inhibition of PKK at 5.00 μM: 71%
Human PKK mRNA [1]; [7]
  percent inhibition of PKK at 5.00 μM: 92%
  percent inhibition of PKK at 0.19 0μM: 22%
  percent inhibition of PKK at 0.56 0μM: 45%
  percent inhibition of PKK at 1.67 1μM: 74%
Human PKK mRNA [1]; 4 point dose response, HepaRG cells, Table 35
  IC50: 700 nM
Human PKK mRNA [1]; [8]
  IC50: 700 nM
Human PKK mRNA [2]; HepaRG cells, 5,000 nM antisense oligonucleotide, 5-10-5 gapmers, Table 16
  % inhibition: 93%

## 546248 (e[5mC]*e[5mC]*eT*e[5mC]*e[5mC]*dA*dA*dA*dG*dT*d[5mC]*dA*dA*d[5mC]*dT*e[5mC]*e[5mC]*e[5mC]*eG*eG; antisense) [compound 546248]
Human PKK mRNA [1]; [14]
  percent inhibition of PKK at 0.19 μM: 25%
  percent inhibition of PKK at 0.56 μM: 66%
  percent inhibition of PKK at 1.67 μM: 87%
  percent inhibition of PKK at 5.00 μM: 93%
Human PKK mRNA [1]; [15]
  IC50: 400 nM
Human PKK mRNA [1]; HepaRG cells
  percent inhibition of PKK mRNA, 0.19 μM: 0%
  percent inhibition of PKK mRNA, 0.56 μM: 59%
  percent inhibition of PKK mRNA, 1.67 μM: 73%
  percent inhibition of PKK mRNA, 5.00 μM: 89%
Human PKK mRNA [1]; HepaRG cells, 0.19-5.00 μM
  IC50: 800 nM
Human PKK mRNA [2]; [6]
  % inhibition: 86%
